Here are results for five compounds from ChEMBL document CHEMBL1151233, “Biotransformation of imperatorin by Aspergillus flavus” (J Nat Prod, 2004).

The subject of data set [1] is Hepatitis B virus. As to the kind of experiment: Antiviral activity against hepatitis B virus infected in human MS-G2 cells assessed as inhibition of surface antigen production at 10 uM after 48 hrs. The format is functional. Particulars: MS-G2, 48 h.
Data set [2] is described as follows: Cytotoxicity against human MS-G2 cells at 50 uM by MTT assay. The format is cell-based. To be noted: read-out: INH.
A short description of data set [3]: Cytotoxicity against human MS-G2 cells at 10 uM by MTT assay. The data set is classed as cell-based. Particulars: read-out: INH.
For data set [4], the system named is Hepatitis B virus. As to the kind of experiment: Antiviral activity against hepatitis B virus infected in human MS-G2 cells assessed as inhibition of surface antigen production at 100 uM after 48 hrs. To be noted: MS-G2, 48 h. The format is functional.
Data set [5] deals with Hepatitis B virus. Briefly: Antiviral activity against hepatitis B virus infected in human MS-G2 cells assessed as inhibition of surface antigen production at 50 uM after 48 hrs. The data set is classed as functional. Particulars: MS-G2, 48 h.
Data set [6] concerns Hepatitis B virus. Briefly: Antiviral activity against hepatitis B virus infected in human MS-G2 cells assessed as inhibition of e-antigen production at 50 uM after 48 hrs. The data set is classed as functional. To be noted: MS-G2, 48 h.
For data set [7], the system named is Hepatitis B virus. As to the kind of experiment: Antiviral activity against hepatitis B virus infected in human MS-G2 cells assessed as inhibition of e-antigen production at 100 uM after 48 hrs. The data set is classed as functional. To be noted: MS-G2, 48 h.
Data set [8] has as its system Hepatitis B virus. Briefly: Antiviral activity against hepatitis B virus infected in human MS-G2 cells assessed as inhibition of e-antigen production at 10 uM after 48 hrs. The data set is classed as functional. Particulars: MS-G2, 48 h.
A short description of data set [9]: Cytotoxicity against human MS-G2 cells at 100 uM by MTT assay. The format is cell-based. To be noted: read-out: INH.

With `O=c1ccc2cc3ccoc3c(O)c2o1` [XANTHOTOXOL], the inhibition (in general, the change of the read-out against control, counted positive when it falls) at 10 µM is 5.2% in the data set with Hepatitis B virus [1] and -5% with Hepatitis B virus [8]. In addition, in data set [2], the cytotoxicity at 50 µM came out at 12.2%. The cytotoxicity at 10 µM in data set [3] worked out at 7.8%. Also, the inhibition at 100 µM in the data set on Hepatitis B virus [4] stood at 19.8%; with Hepatitis B virus [7], 0.7%. For the same compound, the inhibition at 50 µM in the data set with Hepatitis B virus [5] came out at 10.5%; in the data set with Hepatitis B virus [6] it was 2.7%. Also, in data set [9], the cytotoxicity at 100 µM was 17%.
In the case of `C/C(=C\COc1c2occc2cc2ccc(=O)oc12)CO`, the results for the inhibition at 10 µM in the data set with Hepatitis B virus [1] and with Hepatitis B virus [8] were 20.9% and 8%, respectively. For the same compound, in data set [2], the cytotoxicity at 50 µM came to 3.4%. In data set [3], the cytotoxicity at 10 µM was 13%. Further, the inhibition at 100 µM in the data set on Hepatitis B virus [4] was determined as 61.3%; with Hepatitis B virus [7], 29%. In addition, the inhibition at 50 µM with Hepatitis B virus [5] is 37.4%; with Hepatitis B virus [6] it was 16.5%. Besides, the cytotoxicity at 100 µM in [9] came out at 10.3%.
Regarding `C/C(=C/COc1c2occc2cc2ccc(=O)oc12)C(=O)O`, the figures for the inhibition at 10 µM in the data set with Hepatitis B virus [1] and in the data set with Hepatitis B virus [8] were 13.2% and 0.7%, respectively. For the same compound, the cytotoxicity at 50 µM in data set [2] was 18.4%. Moreover, the cytotoxicity at 10 µM in data set [3] was found to be 11.7%. Further, the inhibition at 100 µM in the data set with Hepatitis B virus [4] is 27%; with Hepatitis B virus [7], 12.5%. Moreover, the values for the inhibition at 50 µM in the data set with Hepatitis B virus [5] and in the data set on Hepatitis B virus [6] were 12.3% and 1.6%, respectively. Also, in data set [9], the cytotoxicity at 100 µM worked out at 14.7%.
Regarding `C/C(=C/COc1c2occc2cc2ccc(=O)oc12)CO` [Z-trichoclin], the inhibition at 10 µM with Hepatitis B virus [1] came out at 13.6%; in the data set with Hepatitis B virus [8], 8.2%. Also, the cytotoxicity at 50 µM in [2] amounted to 15%. The cytotoxicity at 10 µM in data set [3] was found to be 18%. For the same compound, the figures for the inhibition at 100 µM in the data set with Hepatitis B virus [4] and in the data set with Hepatitis B virus [7] were 45.2% and 12.4%, respectively. Moreover, the inhibition at 50 µM in the data set with Hepatitis B virus [5] was determined as 34.6%; in the data set on Hepatitis B virus [6], 11.9%. Further, in [9], the cytotoxicity at 100 µM worked out at 12.6%.
Consider `CC(C)=CCOc1c2occc2cc2ccc(=O)oc12` [PENTOSALEN], for which the figures for the inhibition at 10 µM in the data set on Hepatitis B virus [1] and in the data set on Hepatitis B virus [8] were 14.9% and 3.8%, respectively. In addition, the cytotoxicity at 50 µM in data set [2] turned out to be 8.9%. Besides, the cytotoxicity at 10 µM in [3] is 11%. The inhibition at 100 µM is 68.4% in the data set on Hepatitis B virus [4] and 34.3% in the data set with Hepatitis B virus [7]. Further, the figures for the inhibition at 50 µM with Hepatitis B virus [5] and with Hepatitis B virus [6] were 55.3% and 22.5%, respectively. In data set [9], the cytotoxicity at 100 µM was -8.7%.
